Values of other authors in US20070282422A1, “Medical devices and methods for local delivery of elastin-stabilizing compounds” (Cook Incorporated, priority 2006, published 2007).

Tests used:
aortic elastin = details: lyophilized aortic elastin strips in buffered solutions of 0.3%-0.8% tannic acid
[1] = tested on: elastin in ascending porcine aorta; details: tannic concentrations of about 0.3%

In the case of Tannic acid, the “reduced the susceptibility of the elastin towards elastase” value (aortic elastin) is listed as “about 50%” and the elastin stabilization [1] is listed as “elastin stabilization”.
